Measured values from patent US20250127162A1, “METHODS AND COMPOSITIONS FOR CONTROLLING PESTS IN RICE” (Globachem NV, priority 2022, published 2025).

What was measured:
Oryzaphagus oryzae = experiment: Rice field trials, number of Oryzaphagus oryzae (Example 2, Trials 1-2, Brazil); type: in vivo; settings: 3 days after application; for Number of Oryzaphagus oryzae, Average: average of 4 repetitions; for Number of Oryzaphagus oryzae, Repetition A / Number of Oryzaphagus oryzae, Repetition B / Number of Oryzaphagus oryzae, Repetition C / Number of Oryzaphagus oryzae, Repetition D: one application
Experimental: (§1) All applications were made with an EC formulation containing 650 g/L of pelargonic acid (e.g., 685 g/L of 95% purity pelargonic acid), an anionic emulsifier and a branched fatty acid ester solvent.
Trials 1-2 assessing the use of pelargonic acid for controlling Oryzaphagus oryzae in rice were conducted in Brazil. One application was made 5 days after the first flood irrigation. Assessments of the number of Oryzaphagus oryzae were made three (3) days after application for each of the four (4) repetitions at each dose rate.

Diabrotica speciosa = experiment: Dry bean field trials, Diabrotica speciosa damage and yield (Example 4); type: in vivo; settings: 150 L water/ha, two applications 7 d apart; for % Damage, % UNCK: 28 DAB, Lambda-cyhalothrin 100 at 0.15 L/ha; for Yield: plot
Text: as §1
Diabrotica speciosa is a major pest in rice.
Dry Beans—Diabrotica speciosa

[1] = Trial 1, listed as PA 487.5 g/ha
[2] = Trial 1, listed as PA 1300 g/ha
[3] = Trial 2, listed as PA 487.5 g/ha
[4] = Trial 2, listed as PA 1300 g/ha
[5] = Trial 1, dry bean, listed as PA 812.5 g/ha
[6] = Trial 1, dry bean, listed as PA 975 g/ha
[7] = Trial 1, dry bean, listed as PA 1137.5 g/ha
[8] = Trial 2, dry bean, listed as PA 812.5 g/ha
[9] = Trial 2, dry bean, listed as PA 975 g/ha
[10] = Trial 2, dry bean, listed as PA 1137.5 g/ha

For CCCCCCCCC(=O)O [PA 650 g/ha, pelargonic acid], the E % (Oryzaphagus oryzae; Trial 1) was 90%, the “Number of Oryzaphagus oryzae, Average” value (Oryzaphagus oryzae; Trial 1) was 0.25 b and the “Number of Oryzaphagus oryzae, Average” value (Oryzaphagus oryzae; [1]) was 0.5 b. For the same compound, the “Number of Oryzaphagus oryzae, Average” value (Oryzaphagus oryzae; Trial 1, listed as PA 975 g/ha) was 0.25 b, the “Number of Oryzaphagus oryzae, Average” value (Oryzaphagus oryzae; [2]) was 0 b and the E % (Oryzaphagus oryzae; [1]) was 80%. The E % (Oryzaphagus oryzae; Trial 1, listed as PA 975 g/ha) was 90%, the E % (Oryzaphagus oryzae; [2]) was 100% and the “Number of Oryzaphagus oryzae, Repetition A” value (“Number … Repetition A” for short) (Oryzaphagus oryzae; Trial 1) was 1. For the same compound, the “Number of Oryzaphagus oryzae, Repetition B” value (from here on “Number … Repetition B”) (Oryzaphagus oryzae; Trial 1) was 0, the “Number of Oryzaphagus oryzae, Repetition C” value (from here on “Number … Repetition C”) (Oryzaphagus oryzae; Trial 1) was 0 and the “Number of Oryzaphagus oryzae, Repetition D” value (from here on “Number … Repetition D”) (Oryzaphagus oryzae; Trial 1) was 0. For the same compound, the “Number … Repetition A” value (Oryzaphagus oryzae; [1]) was 0, the “Number … Repetition B” value (Oryzaphagus oryzae; [1]) was 1 and the “Number … Repetition C” value (Oryzaphagus oryzae; [1]) was 1. For the same compound, the “Number … Repetition D” value (Oryzaphagus oryzae; [1]) was 0, the “Number … Repetition A” value (Oryzaphagus oryzae; Trial 1, listed as PA 975 g/ha) was 0 and the “Number … Repetition B” value (Oryzaphagus oryzae; Trial 1, listed as PA 975 g/ha) was 0. For the same compound, the “Number … Repetition C” value (Oryzaphagus oryzae; Trial 1, listed as PA 975 g/ha) was 0, the “Number … Repetition D” value (Oryzaphagus oryzae; Trial 1, listed as PA 975 g/ha) was 1 and the “Number … Repetition A” value (Oryzaphagus oryzae; [2]) was 0. For the same compound, the “Number … Repetition B” value (Oryzaphagus oryzae; [2]) was 0, the “Number … Repetition C” value (Oryzaphagus oryzae; [2]) was 0 and the “Number … Repetition D” value (Oryzaphagus oryzae; [2]) was 0. The E % (Oryzaphagus oryzae; Trial 2) was 77.78%, the “Number of Oryzaphagus oryzae, Average” value (Oryzaphagus oryzae; Trial 2) was 0.5 ab and the “Number of Oryzaphagus oryzae, Average” value (Oryzaphagus oryzae; [3]) was 0.75 ab. The “Number of Oryzaphagus oryzae, Average” value (Oryzaphagus oryzae; Trial 2, listed as PA 975 g/ha) was 0.25 b, the “Number of Oryzaphagus oryzae, Average” value (Oryzaphagus oryzae; [4]) was 0 b and the E % (Oryzaphagus oryzae; [3]) was 66.67%. For the same compound, the E % (Oryzaphagus oryzae; Trial 2, listed as PA 975 g/ha) was 88.89%, the E % (Oryzaphagus oryzae; [4]) was 100% and the “Number … Repetition A” value (Oryzaphagus oryzae; Trial 2) was 1. For the same compound, the “Number … Repetition B” value (Oryzaphagus oryzae; Trial 2) was 0, the “Number … Repetition C” value (Oryzaphagus oryzae; Trial 2) was 0 and the “Number … Repetition D” value (Oryzaphagus oryzae; Trial 2) was 1. The “Number … Repetition A” value (Oryzaphagus oryzae; [3]) was 0, the “Number … Repetition B” value (Oryzaphagus oryzae; [3]) was 1 and the “Number … Repetition C” value (Oryzaphagus oryzae; [3]) was 2. For the same compound, the “Number … Repetition D” value (Oryzaphagus oryzae; [3]) was 0, the “Number … Repetition A” value (Oryzaphagus oryzae; Trial 2, listed as PA 975 g/ha) was 1 and the “Number … Repetition B” value (Oryzaphagus oryzae; Trial 2, listed as PA 975 g/ha) was 0. The “Number … Repetition C” value (Oryzaphagus oryzae; Trial 2, listed as PA 975 g/ha) was 0, the “Number … Repetition D” value (Oryzaphagus oryzae; Trial 2, listed as PA 975 g/ha) was 0 and the “Number … Repetition A” value (Oryzaphagus oryzae; [4]) was 0. The “Number … Repetition B” value (Oryzaphagus oryzae; [4]) was 0, the “Number … Repetition C” value (Oryzaphagus oryzae; [4]) was 0 and the “Number … Repetition D” value (Oryzaphagus oryzae; [4]) was 0. The “% Damage, % UNCK” value (Diabrotica speciosa; Trial 1, dry bean) was 27.81a % UNCK, the “% Damage, % UNCK” value (Diabrotica speciosa; [5]) was 82.01b % UNCK and the “% Damage, % UNCK” value (Diabrotica speciosa; [6]) was 86.96b % UNCK. The “% Damage, % UNCK” value (Diabrotica speciosa; [7]) was 88.90b % UNCK, the Yield (Diabrotica speciosa; Trial 1, dry bean) was 2.09b Ton/ha and the Yield (Diabrotica speciosa; [5]) was 2.28ab Ton/ha. The Yield (Diabrotica speciosa; [6]) was 2.37ab Ton/ha, the Yield (Diabrotica speciosa; [7]) was 2.34ab Ton/ha and the “% Damage, % UNCK” value (Diabrotica speciosa; Trial 2, dry bean) was 39.58b % UNCK. The “% Damage, % UNCK” value (Diabrotica speciosa; [8]) was 81.64c % UNCK, the “% Damage, % UNCK” value (Diabrotica speciosa; [9]) was 87.8c % UNCK and the “% Damage, % UNCK” value (Diabrotica speciosa; [10]) was 88.11c % UNCK. For the same compound, the Yield (Diabrotica speciosa; Trial 2, dry bean) was 2.11cd Ton/ha, the Yield (Diabrotica speciosa; [8]) was 2.15cd Ton/ha and the Yield (Diabrotica speciosa; [9]) was 2.19bc Ton/ha. The Yield (Diabrotica speciosa; [10]) was 2.29a Ton/ha.
